In patent US6555091B1, “Polypeptide capable of reacting with antibodies of patients suffering from multiple sclerosis and uses” (Bio Merieux, priority 1997, dated 2003):

Tested on: IgG of CSF from patients suffering from MS
Experiment: ELISA of polypeptides, IgG response of CSFs diluted 1/10 (Table 5, FIGS. 7A and 7B)
Assay type: binding, human
Set-up: key to IgG recognition by CSF: positive (+) if the OD value at 492 nm for a 1/10 dilution of the CSF is greater than the mean values obtained for the CSFs from the ND patients+3 times the standard deviation
Conditions: for number of positive (+) CSFs: total line, 15 MS patients, CSF 1/10
Text: FIGS. 7A and 7B represents the IgG response of the polypeptides whose peptide sequence consists of, respectively, SEQ ID NO: 13, SEQ ID NO: 12, SEQ ID NO: 14, SEQ ID NO: 16, SEQ ID NO: 19 and SEQ ID NO: 15, with respect to CSFs diluted 1/10; the results assembled in the appended Table 5 are expressed by the difference in the optical density values obtained for the polypeptide tested and the values obtained for the HIV polypeptide used as control; ND corresponds to patients suffering from a neurological disease other than MS, and MS* corresponds to patients suffering from MS.
Table 5, illustrated in FIGS. 7A and 7B, collates the results on the specific recognition of CSF from patients suffering from MS for 6 polypeptides of the invention, SEQ ID NO: 13, SEQ ID NO: 12, SEQ ID NO: 14, SEQ ID NO: 16, SEQ ID NO: 19 and SEQ ID NO: 15.
For each polypeptide tested, identified in Table 5 by its peptide sequence, the CSFs from patients 1-22 suffering from Ms are determined as positive (+) if the OD value at 492 nm for a 1/10 dilution of the CSF is greater than the mean values obtained for the CSFs from the ND patients+3 times the standard deviation.

Sequence: DTPYPWGWLLDEGYD (MSRV) [SEQ ID NO: 15]
- number of positive (+) CSFs: 0+

Sequence: RGTQEWTELWVSFRA (MSRV) [SEQ ID NO: 19]
- IgG recognition by CSF (CSF of MS patient 5, 1/10): +
- IgG recognition by CSF (CSF of MS patient 6, 1/10): +
- IgG recognition by CSF (CSF of MS patient 7, 1/10): +
- IgG recognition by CSF (CSF of MS patient 8, 1/10): +
- IgG recognition by CSF (CSF of MS patient 10, 1/10): +
- IgG recognition by CSF (CSF of MS patient 18, 1/10): +
- IgG recognition by CSF (CSF of MS patient 21, 1/10): +
- IgG recognition by CSF (CSF of MS patient 22, 1/10): +
- number of positive (+) CSFs: 8+

Sequence: SRGSHEWAVLFRFYY (MSRV) [SEQ ID NO: 16]
- IgG recognition by CSF (CSF of MS patient 1, 1/10): +
- IgG recognition by CSF (CSF of MS patient 2, 1/10): +
- IgG recognition by CSF (CSF of MS patient 3, 1/10): +
- IgG recognition by CSF (CSF of MS patient 5, 1/10): +
- IgG recognition by CSF (CSF of MS patient 6, 1/10): +
- IgG recognition by CSF (CSF of MS patient 7, 1/10): +
- IgG recognition by CSF (CSF of MS patient 8, 1/10): +
- IgG recognition by CSF (CSF of MS patient 10, 1/10): +
- IgG recognition by CSF (CSF of MS patient 18, 1/10): +
- IgG recognition by CSF (CSF of MS patient 21, 1/10): +
- IgG recognition by CSF (CSF of MS patient 22, 1/10): +
- number of positive (+) CSFs: 11+
